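Where inhibition never reached the appropriate level, the endpoint shown equals the highest concentration tested. Otherwise, values were interpolated linearly from a five-concentration, 48-hour dose response in 96-well plates. TGI denotes the concentration required for complete inhibition of growth.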
Experiments:
Test in all cases: NCI tumour cell line growth inhibition, 48 h
786-0 renal = test system: 786-0 renal
A549 NSCLC = test system: A549 NSCLC
ACHN renal = test system: ACHN renal
CAKI-1 renal = test system: CAKI-1 renal
COLO 205 colon = test system: COLO 205 colon
DLD-1 colon = test system: DLD-1 colon
DMS 273 small cell lung = test system: DMS 273 small cell lung
HCC-2998 colon = test system: HCC-2998 colon
HCT-116 colon = test system: HCT-116 colon
HCT-15 colon = test system: HCT-15 colon
HL-60(TB) leukemia = test system: HL-60(TB) leukemia
HOP-62 NSCLC = test system: HOP-62 NSCLC
HOP-92 NSCLC = test system: HOP-92 NSCLC
HT29 colon = test system: HT29 colon
K-562 leukemia = test system: K-562 leukemia
KM12 colon = test system: KM12 colon
KM20L2 colon = test system: KM20L2 colon
LOX IMVI melanoma = test system: LOX IMVI melanoma
LXFL 529 NSCLC = test system: LXFL 529 NSCLC
M14 melanoma = test system: M14 melanoma
MALME-3M melanoma = test system: MALME-3M melanoma
MOLT-4 leukemia = test system: MOLT-4 leukemia
NCI-H226 lung = test system: NCI-H226 lung
NCI-H23 lung = test system: NCI-H23 lung
NCI-H460 lung = test system: NCI-H460 lung
NCI-H522 lung = test system: NCI-H522 lung
OVCAR-3 ovarian = test system: OVCAR-3 ovarian
OVCAR-4 ovarian = test system: OVCAR-4 ovarian
OVCAR-5 ovarian = test system: OVCAR-5 ovarian
OVCAR-8 ovarian = test system: OVCAR-8 ovarian
RPMI-8226 leukemia = test system: RPMI-8226 leukemia
SF-268 CNS = test system: SF-268 CNS
SF-295 CNS = test system: SF-295 CNS
SF-539 CNS = test system: SF-539 CNS
SK-MEL-2 melanoma = test system: SK-MEL-2 melanoma
SK-MEL-28 melanoma = test system: SK-MEL-28 melanoma
SN12C renal = test system: SN12C renal
SNB-19 CNS = test system: SNB-19 CNS
SNB-75 CNS = test system: SNB-75 CNS
SNB-78 CNS = test system: SNB-78 CNS
SR leukemia = test system: SR leukemia
SW-620 colon = test system: SW-620 colon
TK-10 renal = test system: TK-10 renal
U251 CNS = test system: U251 CNS
UACC-257 melanoma = test system: UACC-257 melanoma
UO-31 renal = test system: UO-31 renal
XF 498 CNS = test system: XF 498 CNS
A498 renal = test system: A498 renal
CCRF-CEM leukemia = test system: CCRF-CEM leukemia
DMS 114 small cell lung = test system: DMS 114 small cell lung
EKVX NSCLC = test system: EKVX NSCLC
HOP-18 NSCLC = test system: HOP-18 NSCLC
IGROV1 ovarian = test system: IGROV1 ovarian
M19-MEL melanoma = test system: M19-MEL melanoma
SK-MEL-5 melanoma = test system: SK-MEL-5 melanoma
SK-OV-3 ovarian = test system: SK-OV-3 ovarian
UACC-62 melanoma = test system: UACC-62 melanoma

## CCc1cccc(C)c1NC(=O)CC1C(=O)Nc2ccccc2S1=O (centres undefined)
786-0 renal
  TGI: > 100 µM
A549 NSCLC
  TGI: > 100 µM
ACHN renal
  TGI: > 100 µM
CAKI-1 renal
  TGI: > 100 µM
COLO 205 colon
  TGI: > 100 µM
DLD-1 colon
  TGI: > 100 µM
DMS 273 small cell lung
  TGI: > 100 µM
HCC-2998 colon
  TGI: > 100 µM
HCT-116 colon
  TGI: > 100 µM
HCT-15 colon
  TGI: > 100 µM
HL-60(TB) leukemia
  TGI: 74.9 µM
HOP-62 NSCLC
  TGI: > 100 µM
HOP-92 NSCLC
  TGI: > 100 µM
HT29 colon
  TGI: > 100 µM
K-562 leukemia
  TGI: > 100 µM
KM12 colon
  TGI: > 100 µM
KM20L2 colon
  TGI: 90.4 µM
LOX IMVI melanoma
  TGI: > 100 µM
LXFL 529 NSCLC
  TGI: > 100 µM
M14 melanoma
  TGI: > 100 µM
MALME-3M melanoma
  TGI: > 100 µM
MOLT-4 leukemia
  TGI: > 100 µM
NCI-H226 lung
  TGI: > 100 µM
NCI-H23 lung
  TGI: > 100 µM
NCI-H460 lung
  TGI: > 100 µM
NCI-H522 lung
  TGI: > 100 µM
OVCAR-3 ovarian
  TGI: > 100 µM
OVCAR-4 ovarian
  TGI: > 100 µM
OVCAR-5 ovarian
  TGI: > 100 µM
OVCAR-8 ovarian
  TGI: > 100 µM
RPMI-8226 leukemia
  TGI: > 100 µM
SF-268 CNS
  TGI: > 100 µM
SF-295 CNS
  TGI: 97.6 µM
SF-539 CNS
  TGI: 79.2 µM
SK-MEL-2 melanoma
  TGI: > 100 µM
SK-MEL-28 melanoma
  TGI: > 100 µM
SN12C renal
  TGI: > 100 µM
SNB-19 CNS
  TGI: > 100 µM
SNB-75 CNS
  TGI: > 100 µM
SNB-78 CNS
  TGI: > 100 µM
SR leukemia
  TGI: > 100 µM
SW-620 colon
  TGI: > 100 µM
TK-10 renal
  TGI: > 100 µM
U251 CNS
  TGI: 55.4 µM
UACC-257 melanoma
  TGI: 86.5 µM
UO-31 renal
  TGI: > 100 µM
XF 498 CNS
  TGI: > 100 µM

## CC1CCC(C(C)(C)c2ccccc2)C(=O)C1 (centres undefined)
786-0 renal
  TGI: > 100 µM
A498 renal
  TGI: > 100 µM
A549 NSCLC
  TGI: > 100 µM
ACHN renal
  TGI: > 100 µM
CAKI-1 renal
  TGI: > 100 µM
CCRF-CEM leukemia
  TGI: > 100 µM
COLO 205 colon
  TGI: > 100 µM
DLD-1 colon
  TGI: > 100 µM
DMS 114 small cell lung
  TGI: > 100 µM
DMS 273 small cell lung
  TGI: > 100 µM
EKVX NSCLC
  TGI: > 100 µM
HCC-2998 colon
  TGI: > 100 µM
HCT-116 colon
  TGI: > 100 µM
HCT-15 colon
  TGI: > 100 µM
HL-60(TB) leukemia
  TGI: > 100 µM
HOP-18 NSCLC
  TGI: > 100 µM
HOP-62 NSCLC
  TGI: > 100 µM
HOP-92 NSCLC
  TGI: > 100 µM
HT29 colon
  TGI: > 100 µM
IGROV1 ovarian
  TGI: > 100 µM
K-562 leukemia
  TGI: > 100 µM
KM12 colon
  TGI: > 100 µM
KM20L2 colon
  TGI: > 100 µM
LOX IMVI melanoma
  TGI: > 100 µM
LXFL 529 NSCLC
  TGI: > 100 µM
M14 melanoma
  TGI: > 100 µM
M19-MEL melanoma
  TGI: > 100 µM
MALME-3M melanoma
  TGI: > 100 µM
MOLT-4 leukemia
  TGI: > 100 µM
NCI-H460 lung
  TGI: > 100 µM
OVCAR-3 ovarian
  TGI: > 100 µM
OVCAR-4 ovarian
  TGI: > 100 µM
OVCAR-5 ovarian
  TGI: > 100 µM
OVCAR-8 ovarian
  TGI: > 100 µM
RPMI-8226 leukemia
  TGI: > 100 µM
SF-268 CNS
  TGI: > 100 µM
SF-295 CNS
  TGI: > 100 µM
SF-539 CNS
  TGI: > 100 µM
SK-MEL-2 melanoma
  TGI: > 100 µM
SK-MEL-5 melanoma
  TGI: > 100 µM
SK-OV-3 ovarian
  TGI: > 100 µM
SN12C renal
  TGI: > 100 µM
SNB-19 CNS
  TGI: > 100 µM
SNB-75 CNS
  TGI: > 100 µM
SNB-78 CNS
  TGI: > 100 µM
SW-620 colon
  TGI: > 100 µM
TK-10 renal
  TGI: > 100 µM
U251 CNS
  TGI: > 100 µM
UACC-257 melanoma
  TGI: > 100 µM
UACC-62 melanoma
  TGI: > 100 µM
UO-31 renal
  TGI: > 100 µM
XF 498 CNS
  TGI: > 100 µM
